Here are results for 1 compound from US11826432B2, “Linkers, conjugates and applications thereof” (priority 2021, dated 2023).

Experiment [1] relates to HER2 high-expressing cancer cells SK-BR-3. Kind of experiment: Cytotoxicity assay (CellTiter-Glo cell viability), SK-BR-3. The note with it: SK-BR-3, 120 h treatment. It counts as cell-based. The procedure:
(§1) Cytotoxicity assays were performed using HER2 high-expressing cancer cells SK-BR-3 (FIG. 1) and NCI-N87 (FIG. 2), HER2 low-expressing cancer cells CFPAC-1 (FIG. 3) and NCI-H2110 (FIG. 4), as well as a HER2 negative cell line MDA-MB-468 (FIG. 5) to analyze the effect of conjugates on tumor cell proliferation. […] In brief, 3000 to 5000 cells were plated in 96-well plates, and cells were able to attach overnight. Cells were treated with indicated drugs with various concentrations for 120 h. Cell viabilities were examined by CellTiter-Glo® Luminescent Cell Viability Assay, and percentage of cell viability was calculated.

For experiment [2], the system named is HER2 high-expressing cancer cells NCI-N87. As to the kind of experiment: Cytotoxicity assay (CellTiter-Glo cell viability), NCI-N87. It counts as cell-based. The following applies: NCI-N87, 120 h treatment. The procedure:
as §1

The term IC50 denotes the midpoint of a concentration-inhibition curve. The low end stands for greater potency in that assay, the high end for weaker potency in that assay. `CC[C@@]1(O)C(=O)OCc2c1cc1n(c2=O)Cc2c-1nc1cc(F)c(C)c3c1c2[C@@H](NC(=O)CO)CC3` [compound 10]: the IC50 in experiment [1] was 1.47 nM; in experiment [2], 4.68 nM.
